The numbers were not newly measured in patent US20110021626A1, “ENCAPSULATION OF VITAMIN C INTO WATER SOLUBLE DENDRIMERS” (CENTRE NATIONAL DE LA RECHERCHE SCIENTIFIQUE - CNRS, priority 2008, published 2011), which cites them from elsewhere.

For the data set the following is noted: at 25° C. in water.

`O=C1O[C@H]([C@@H](O)CO)C(O)=C1O` [ascorbic acid]: the pKa is on record as 4,11.
